The test system of data set [1] is Mus musculus. Nature of the data set: Antiinflammatory activity against xylene-induced ear swelling ICR mouse model assessed as swelling inhibition ratio at 100 mg/kg, IG measured after 1 hr. The class given is functional. Details: scale not given: the % may be the effect or the level left.
A short description of data set [2]: AUC(0 to infinity) in Sprague-Dawley rat at 1 mg/kg, iv. On the set-up: time infinity, dose 1 mg/kg, route iv. The conditions noted are these: in vivo. The class given is ADME, organism-based.
Data set [3] deals with Rattus norvegicus. Nature of the data set: Antiarthritic activity against adjuvant arthritis-induced po dosed Sprague-Dawley rat model assessed as decrease in bone erosion of cartilage administered from day 21 to 36 post CFA injection and measured every 3 days by H and E staining method. The class given is functional, organism-based. The conditions noted are these: dose 50-100 mg/kg, time 15.0 day, DDE = dose-dependent effect.

A short description of data set [4]: Metabolic stability in human liver microsome assessed as intrinsic permeability measured per mg of protein. In kind it is ADME. The conditions noted are these: microsomes. Background: Liver microsomes are a subcellular fraction often used to study metabolism.
Data set [5] can be described thus: AUC(0 to infinity) in Sprague-Dawley rat at 10 mg/kg, po. In kind it is ADME, organism-based. Details: time infinity, dose 10 mg/kg, route po. The conditions noted are these: in vivo.
Data set [6] concerns Mus musculus. In words: Antiarthritic activity against collagen-induced arthritis DBA/1J mouse model assessed as decrease in inflammation at 100 mg/kg, ip administered from day 57 to 74 post CFA injection and measured every 3 days by H and E staining method. In kind it is functional, organism-based. The conditions noted are these: time 17.0 day.
Data set [7] in a line: Cmax in Sprague-Dawley rat at 10 mg/kg, po. Details: dose 10 mg/kg, route po. In kind it is ADME, organism-based. The conditions noted are these: in vivo.
Data set [8] in a line: Apparent volume of distribution in Sprague-Dawley rat at 1 mg/kg, iv. In kind it is ADME, organism-based. The conditions noted are these: in vivo, read-out: Vz.
The test system of data set [9] is Rattus norvegicus. Nature of the data set: Antiarthritic activity against adjuvant arthritis-induced po dosed Sprague-Dawley rat model assessed as decrease in pannus formation administered from day 21 to 36 post CFA injection and measured every 3 days by H and E staining method. The conditions noted are these: dose 50-100 mg/kg, time 15.0 day, DDE = dose-dependent effect. In kind it is functional, organism-based.

Data set [10] can be described thus: Tmax in Sprague-Dawley rat at 10 mg/kg, po. In kind it is ADME, organism-based. The conditions noted are these: in vivo.
In data set [11] the target is T1, Indoleamine 2,3-dioxygenase 2 (Homo sapiens) (UniProt Q6ZQW0).
T1 sequence (whole entry): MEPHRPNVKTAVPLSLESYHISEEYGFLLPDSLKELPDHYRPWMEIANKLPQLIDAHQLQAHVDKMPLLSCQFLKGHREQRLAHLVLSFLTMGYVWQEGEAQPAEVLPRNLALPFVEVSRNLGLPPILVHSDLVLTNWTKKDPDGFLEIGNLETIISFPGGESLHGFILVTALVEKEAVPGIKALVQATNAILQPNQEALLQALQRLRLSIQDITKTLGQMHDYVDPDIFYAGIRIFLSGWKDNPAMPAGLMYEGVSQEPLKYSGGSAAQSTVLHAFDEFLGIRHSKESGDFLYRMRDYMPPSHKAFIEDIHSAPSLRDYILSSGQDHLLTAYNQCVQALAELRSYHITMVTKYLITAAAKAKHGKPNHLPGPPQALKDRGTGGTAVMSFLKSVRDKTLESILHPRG
Nature of the data set: Inhibition of recombinant human IDO2 in HeLa cells at […] relative to control. The class given is cell-based.

In data set [12] the test system is Mus musculus. Nature of the data set: Antiarthritic activity against collagen-induced arthritis DBA/1J mouse model assessed as decrease in bone erosion at 100 mg/kg, ip administered from day 57 to 74 post CFA injection and measured every 3 days by H and E staining method. The class given is functional, organism-based. The conditions noted are these: time 17.0 day.

For data set [13], the system named is Mus musculus. Nature of the data set: Antiarthritic activity against collagen-induced arthritis DBA/1J mouse model assessed as decrease in IL-18 level at 50 to 100 mg/kg, ip administered from day 57 to 74 post CFA injection and measured every 3 days by immunohistochemical staining method. The conditions noted are these: dose 50-100 mg/kg, time 17.0 day. In kind it is functional, organism-based.

The test system of data set [14] is Mus musculus. Nature of the data set: Antiarthritic activity against collagen-induced arthritis ip dosed DBA/1J mouse model assessed as paw swelling administered from day 57 to 74 post CFA injection and measured every 3 days. In kind it is functional, organism-based. The conditions noted are these: dose 25-100 mg/kg, time 17.0 day, DDE = dose-dependent effect.

The nature of data set [15]: MRT (0 to infinity) in Sprague-Dawley rat at 10 mg/kg, po. In kind it is ADME, organism-based. The conditions noted are these: in vivo.
Data set [16] deals with T2, Indoleamine 2,3-dioxygenase 1 (Homo sapiens, UniProt P14902). In words: Inhibition of recombinant human IDO1 in HeLa cells at 100 nM relative to control. In kind it is cell-based.
Target sequence in this assay (P14902 whole entry, looked up): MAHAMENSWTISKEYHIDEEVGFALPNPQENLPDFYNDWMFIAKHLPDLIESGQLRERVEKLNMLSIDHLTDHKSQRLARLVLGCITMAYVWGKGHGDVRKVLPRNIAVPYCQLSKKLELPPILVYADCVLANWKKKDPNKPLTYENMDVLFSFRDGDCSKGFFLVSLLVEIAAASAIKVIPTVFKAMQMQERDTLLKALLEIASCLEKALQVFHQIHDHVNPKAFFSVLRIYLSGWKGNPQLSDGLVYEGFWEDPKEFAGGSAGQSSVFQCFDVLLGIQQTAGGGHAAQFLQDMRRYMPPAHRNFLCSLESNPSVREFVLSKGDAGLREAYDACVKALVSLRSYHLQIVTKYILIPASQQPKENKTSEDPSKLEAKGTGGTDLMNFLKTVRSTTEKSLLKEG
Data set [17] concerns the target T2, Indoleamine 2,3-dioxygenase 1. Nature of the data set: Inhibition of human IDO1.
Target sequence in this assay (P14902 whole entry): as the sequence (P14902 whole entry, looked up) above
A short description of data set [18]: Oral bioavailability in Sprague-Dawley rat at 10 mg/kg. In kind it is ADME, organism-based. The conditions noted are these: in vivo.
For data set [19], the system named is Mus musculus. Nature of the data set: Antiinflammatory activity against xylene-induced ear swelling ICR mouse model assessed as swelling rate at 100 mg/kg, IG measured after 1 hr (Activity = 58.21 +/- 12.79%). In kind it is functional.
The nature of data set [20]: Half life in Sprague-Dawley rat at 1 mg/kg, iv. In kind it is ADME, organism-based. The conditions noted are these: in vivo.
Data set [21] deals with T1, Indoleamine 2,3-dioxygenase 2 (Homo sapiens). Nature of the data set: Inhibition of recombinant human IDO2 in HeLa cells at 100 nM relative to control. In kind it is cell-based.
The test system of data set [22] is Rattus norvegicus. In words: Antiarthritic activity against adjuvant arthritis-induced Sprague-Dawley rat model assessed as decrease in paw swelling at 30 to 120 mg/kg, po administered from day 21 to 36 post CFA injection and measured every 3 days. The class given is functional, organism-based. The conditions noted are these: dose 30-120 mg/kg, time 15.0 day.

A short description of data set [23]: Clearance in Sprague-Dawley rat at 1 mg/kg, iv. In kind it is ADME, organism-based. The conditions noted are these: in vivo.
For data set [24], the system named is Rattus norvegicus. In words: Antiarthritic activity against adjuvant arthritis-induced Sprague-Dawley rat model assessed as decrease in TNF-alpha level at 30 to 120 mg/kg, po administered from day 21 to 36 post CFA injection and measured every 3 days. The class given is functional, organism-based. The conditions noted are these: dose 30-120 mg/kg, time 15.0 day.

The test system of data set [25] is Rattus norvegicus. Nature of the data set: Antiarthritic activity against adjuvant arthritis-induced Sprague-Dawley rat model assessed as decrease in index score at 30 to 120 mg/kg, po administered from day 21 to 36 post CFA injection and measured every 3 days. The class given is functional, organism-based. The conditions noted are these: dose 30-120 mg/kg, time 15.0 day.

The target of data set [26] is T3, Indoleamine 2,3-dioxygenase 2 (Homo sapiens, UniProt Q6ZQW0).
T3 sequence (Q6ZQW0 whole entry): T1 sequence (whole entry)
In words: Inhibition of human IDO2.

Data set [27] has as its system Mus musculus. In words: Antiarthritic activity against collagen-induced arthritis DBA/1J mouse model assessed as paw swelling at 100 mg/kg, ip administered from day 57 to 74 post CFA injection and measured every 3 days. In kind it is functional, organism-based. The conditions noted are these: time 17.0 day.
In data set [28] the test system is Mus musculus. Nature of the data set: Antiarthritic activity against collagen-induced arthritis DBA/1J mouse model assessed as decrease in IL-33 level at 50 to 100 mg/kg, ip administered from day 57 to 74 post CFA injection and measured every 3 days by immunohistochemical staining method. In kind it is functional, organism-based. The conditions noted are these: dose 50-100 mg/kg, time 17.0 day.

The next data set relates to HeLa. Nature of the data set: Antiproliferative activity against human HeLa cells. In kind it is functional, cell-based.
Data set [29] can be described thus: Metabolic stability in human liver microsome assessed as intrinsic clearance. The conditions noted are these: microsomes. The class given is ADME.
A short description of data set [30]: MRT (0 to infinity) in Sprague-Dawley rat at 1 mg/kg, iv. The conditions noted are these: in vivo. The class given is ADME, organism-based.
Data set [31] has as its system Rattus norvegicus. In words: Antiarthritic activity against adjuvant arthritis-induced po dosed Sprague-Dawley rat model assessed as decrease in inflammatory cell infiltration administered from day 21 to 36 post CFA injection and measured every 3 days by H and E staining method. The class given is functional, organism-based. The conditions noted are these: dose 50-100 mg/kg, time 15.0 day, DDE = dose-dependent effect.

The nature of data set [32]: Half life in Sprague-Dawley rat at 10 mg/kg, po. The class given is ADME, organism-based. The conditions noted are these: in vivo.
Data set [33] deals with Mus musculus. Nature of the data set: Antiarthritic activity against collagen-induced arthritis DBA/1J mouse model assessed as increase in cartilage at 100 mg/kg, ip administered from day 57 to 74 post CFA injection and measured every 3 days by H and E staining method. The conditions noted are these: time 17.0 day. In kind it is functional, organism-based.
The nature of data set [34]: Metabolic stability in human liver microsome assessed as half life. In kind it is ADME. The conditions noted are these: liver microsomes.
A short description of data set [35]: Metabolic stability in human liver microsome assessed as binding constant. In kind it is ADME. The conditions noted are these: microsomes.
Data set [36] relates to Rattus norvegicus. Nature of the data set: Antiarthritic activity against adjuvant arthritis-induced Sprague-Dawley rat model assessed as decrease in IL-6 level at 30 to 120 mg/kg, po administered from day 21 to 36 post CFA injection and measured every 3 days. The class given is functional, organism-based. The conditions noted are these: dose 30-120 mg/kg, time 15.0 day.

The target of data set [37] is Tryptophan 2,3-dioxygenase (Homo sapiens, UniProt P48775). Nature of the data set: Inhibition of TDO (unknown origin).
The target of data set [38] is T3, Indoleamine 2,3-dioxygenase 2. Nature of the data set: Inhibition of IDO2 (unknown origin).
The target of data set [39] is T2, Indoleamine 2,3-dioxygenase 1. Nature of the data set: Inhibition of IDO1 (unknown origin).
Target sequence in this assay (P14902 whole entry): as the sequence (P14902 whole entry, looked up) above

Active and inactive are the calls of the source.

Chain of Tryptophan 2,3-dioxygenase (P48775 whole entry): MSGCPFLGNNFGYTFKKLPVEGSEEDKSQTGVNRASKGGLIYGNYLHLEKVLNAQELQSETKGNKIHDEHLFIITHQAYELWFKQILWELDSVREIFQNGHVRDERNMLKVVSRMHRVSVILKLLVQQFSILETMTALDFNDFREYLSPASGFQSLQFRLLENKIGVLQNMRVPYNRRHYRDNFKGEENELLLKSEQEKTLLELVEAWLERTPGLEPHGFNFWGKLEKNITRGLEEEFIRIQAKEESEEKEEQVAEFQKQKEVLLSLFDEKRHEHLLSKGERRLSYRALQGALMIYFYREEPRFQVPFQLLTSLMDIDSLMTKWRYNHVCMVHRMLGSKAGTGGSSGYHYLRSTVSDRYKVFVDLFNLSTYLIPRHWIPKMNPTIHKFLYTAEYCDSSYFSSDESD

Regarding `O=C(NCc1cn(CCNc2nonc2/C(=N/O)NCc2cccc(Br)c2)nn1)c1ccccn1`, the Activity in the data set on Mus musculus [1] was 65.32%; in the data set with Rattus norvegicus [3], “Dde”; in the data set on Rattus norvegicus [9], “Dde”; in the data set on Mus musculus [14] it was “Dde”; with Mus musculus [19], 20.19%; in the data set on Rattus norvegicus [31], “Dde”. Further, the AUC(0-inf) in [2] stood at 375 ng·h/mL; in data set [5], 670 ng·h/mL. Moreover, the Pm in data set [4] is 0.25 mL⁻¹. Besides, the outcome in the data set with Mus musculus [6], in the data set with Mus musculus [12], with Mus musculus [13], in the data set on Rattus norvegicus [22], in the data set on Rattus norvegicus [24] and in the data set on Rattus norvegicus [25] was Active. Also, the outcome with Mus musculus [27], in the data set on Mus musculus [28], with Mus musculus [33] and in the data set with Rattus norvegicus [36] was Active. In data set [7], the peak level (Cmax) was 154 ng/mL. Besides, the Vd in data set [8] stood at 2.68 L/kg. Also, in data set [10], the Tmax stood at 45 min. Moreover, the inhibition in data set [11] stood at 97%; in data set [16] it was 26%; in data set [21] it was 41%. Also, the values for the mean residence time (MRT inf) in [15] and in data set [30] were 449 min and 33 min, respectively. Also, the IC50 in data set [17] was 411 nM; in [26], 112 nM. Also, the bioavailability in data set [18] was found to be 17.9%. Also, the half-life was 41.4 min in data set [20], 121 min in [32] and 49.5 min in [34]. Also, the clearance in [23] was 44.5 mL/min/kg. Also, it took 633 nM to reach a half-maximal effect in the data set with HeLa (EC50). In addition, the CLH in data set [29] amounted to 0.056 mL/min. Further, the K in [35] is 0.014 min⁻¹.
Regarding `CN1CCN(c2ccc3nc4n(c(=O)c3c2)-c2ccc(F)cc2C4=O)CC1`, the IC50 in data set [37] is 760 nM; in [38], 18400 nM; in [39] it was 500 nM.

As usually defined, the AUC(0-inf) is total exposure, with the tail of the curve extrapolated. A word on the Cmax: it is the peak of the concentration-time curve. For orientation: Tmax means the time at which the peak concentration occurs. For orientation: inhibition means the share of the control response that was lost under treatment. The MRT inf is a mean duration of stay, worked out from the concentration-time curve. For orientation: IC50 means the concentration needed to halve the response being measured. As a reminder, the bioavailability is dose-corrected exposure relative to a reference, in per cent. The term half-life denotes the time needed for the level to fall by half in the phase considered. As usually defined, the clearance is the volume of plasma or blood freed of the substance per unit of time. What is called EC50 is the concentration giving half of the maximal effect.

The values above are taken from ChEMBL document CHEMBL5214930, “Discovery of the First Selective IDO2 Inhibitor As Novel Immunotherapeutic Avenues for Rheumatoid Arthritis” (J Med Chem, 2022).
